≈ marks a conversion by molar mass, not a printed value. Read-outs that look alike come from different tables or passages of the source.
Legend:
M. abscessus ATCC 19977 = experiment: MIC, resazurin microtiter assay; assay type: cell-based; conditions: Mueller Hinton II; for MIC: Mycobacteroides abscessus, ATCC19977, read-out: MIC M. abscessus ATCC 19977
M. abscessus DCI #21 = experiment: MIC, resazurin microtiter assay; assay type: cell-based; conditions: for MIC: Mycobacteroides abscessus, read-out: MIC M. abscessus DCI #21
[1] = tested on: M. massiliense CIP 108297; experiment: MIC, resazurin microtiter assay; assay type: cell-based; conditions: for MIC: Mycobacteroides abscessus, CIP108297, Mueller Hinton II, read-out: MIC M. massiliense CIP 108297
M. massiliense CRM 0019 = experiment: MIC, resazurin microtiter assay; assay type: cell-based; conditions: for MIC: Mycobacteroides abscessus, CRM0019, Mueller Hinton II, read-out: MIC M. massiliense CRM 0019
M. bolletii ATCC 14472 = experiment: MIC, resazurin microtiter assay; assay type: cell-based; conditions: for MIC: Mycobacteroides abscessus, ATCC14472, Mueller Hinton II, read-out: MIC M. bolletii ATCC 14472
M. chelonae ATCC 35752 = experiment: MIC, resazurin microtiter assay; assay type: cell-based; conditions: for MIC: Mycobacteroides chelonae, ATCC35752, Mueller Hinton II, read-out: MIC M. chelonae ATCC 35752
[2] = tested on: M. tuberculosis H37Rv mc^26206; experiment: microbe, parasite or virus in culture; assay type: cell-based; conditions: for MIC: Mycobacterium tuberculosis, H37RV, read-out: MIC M. tb H37 Rv (mc2-6206)
M. smegmatis mc^2155 = experiment: MIC, resazurin microtiter assay; assay type: cell-based; conditions: for MIC: Mycolicibacterium smegmatis, MC^2155, 7H9-ADC-0.05% Tween 80, read-out: MIC M. smeg. mc^2155
M. avium 104 = experiment: MIC, resazurin microtiter assay; assay type: cell-based; conditions: Mycobacterium avium, 104; Mueller Hinton II; read-out: MIC M. avium 104
M. intracellulare 1956 = experiment: MIC, resazurin microtiter assay; assay type: cell-based; conditions: Mueller Hinton II; read-out: MIC M. avium Intracellulare 1956
M. xenopi WT = experiment: MIC, resazurin microtiter assay; assay type: cell-based; conditions: Mycobacterium xenopi, Mueller Hinton II; read-out: MIC M. xenopi WT
P. aeruginosa PAO-1 = experiment: MIC, resazurin microtiter assay; assay type: cell-based, Pseudomonas aeruginosa; conditions: Mueller Hinton II
S. aureus ATCC25923 = experiment: MIC, resazurin microtiter assay; assay type: cell-based; conditions: Staphylococcus aureus, ATCC25923; Mueller Hinton II; read-out: MIC S. aureus ATCC25923
mycobacteria = experiment: organism not typed; assay type: cell-based; conditions: lowest concentration reducing CFU by 90% relative to the inoculum; strain not stated; read-out: MBC90
THP-1 cells = experiment: Cytotoxicity assay, THP-1 cell viability (CellTiter-Glo); assay type: cell-based, human; conditions: 3 days
Protocol: The cytotoxicity of compounds was determined by measuring THP-1 cell viability after 3 days in the presence of test compounds. Compounds were prepared as 10-point serial dilutions in DMSO. The highest concentration of compound tested was 50 μM where compounds were soluble in DMSO at 10 mM. THP-1 cells were cultured in complete RPMI and differentiated into macrophage-like cells using 80 nM PMA overnight at 37° C., 5% CO2. Cells were inoculated into assay plates and cultured for 24 h before compound dilutions were added to a final DMSO concentration of 0.5%. Each run included staurosporine as a control. Assay plates were incubated for 3 days at 37° C., 5% CO2, growth was measured using the CellTiter-Glo® Luminescent Cell Viability Assay (Promega) which uses ATP as an indicator of cell viability. Relative luminescent units (RLU) were measured using a Biotek Synergy 4 plate reader. The dose response curve was fitted using the Levenberg-Marquardt algorithm.

M. abscessus 103 = experiment: MIC/MBC by microbroth dilution (MH or 7H9 broth); assay type: cell-based, M. abscessus subsp. bolletii; conditions: Mycobacteroides abscessus, 103
M. abscessus 1513 = experiment: MIC/MBC by microbroth dilution (MH or 7H9 broth); assay type: cell-based, M. abscessus subsp. abscessus; conditions: Mycobacteroides abscessus, 1513
[3] = tested on: M. massiliense strain 1513; experiment: Metabolic labeling and mycolic acid analysis; conditions: 4x and 10x MIC, 16 hr, [1,2-14C]acetate labeling, TLC
Protocol: Cultures of M. massiliense 1513 grown to mid log-phase in Mueller-Hinton II broth were incubated with different concentrations of inhibitors for 16 hr at 37° C. with shaking. 0.5 μCi/mL [1,2-^14C]acetic acid (specific activity, 52 Ci/mol, PerkinElmer Inc.) was added at the same time as the inhibitors. Total lipids and cell wall-bound mycolic acid methyl esters were prepared from treated and untreated cells and analyzed by TLC as described in Grzegorzewicz et al, Nature Chemical Biology, 2012, 8:334+341.

| SMILES | MIC (M. abscessus ATCC 19977) [µg/mL] | MIC (M. abscessus DCI #21; Mueller Hinton II) [µg/mL] | MIC [1] [µg/mL] | MIC (M. massiliense CRM 0019) [µg/mL] | MIC (M. bolletii ATCC 14472) [µg/mL] | MIC (M. chelonae ATCC 35752) [µg/mL] | MIC [2] [µg/mL] | MIC (M. smegmatis mc^2155) [µg/mL] | MIC (M. avium 104) [µg/mL] | MIC (M. intracellulare 1956) [µg/mL] | MIC (M. xenopi WT) [µg/mL] | other results |
| --- | --- | --- | --- | --- | --- | --- | --- | --- | --- | --- | --- | --- |
| CCC12CC3CC(C1)CC(NC(=O)c1cc4ccccc4[nH]1)(C3)C2 [Compound 6, N-(3-ethyl-1-adamantyl)-1H-indole-2-carboxamide] | > 32 | > 32 | > 32 | > 32 | > 32 | > 32 | 1.25 (≈ 3.88 µM) | > 20 | > 32 | > 32 | 1 to 2 (≈ 3.1 to 6.2 µM) | – |
| CC1CCC(NC(=O)c2cc3ccccc3[nH]2)CC1 (stereo not drawn) [Compound 15] | – | – | – | – | – | – | – | – | > 32 | > 32 | 16 (≈ 62.4 µM) | MIC M. abscessus ATCC 19977 (M. abscessus ATCC 19977): >32 µg/mL; MIC M. abscessus DCI #21 (M. abscessus DCI #21; Mueller Hinton II): >32 µg/mL; MIC M. massiliense CIP 108297 ([1]; Mueller Hinton II): 16 µg/mL (≈ 62.4 µM); MIC M. massiliense CRM 0019 (M. massiliense CRM 0019; Mueller Hinton II): 16 µg/mL (≈ 62.4 µM); MIC M. bolletii ATCC 14472 (M. bolletii ATCC 14472; Mueller Hinton II): 16 µg/mL (≈ 62.4 µM); MIC M. chelonae ATCC 35752 (M. chelonae ATCC 35752; Mueller Hinton II): 16 µg/mL (≈ 62.4 µM); MIC M. tb H37 Rv (mc2-6206) [2]: 5 µg/mL (≈ 19.5 µM); MIC M. smeg. mc^2155 (M. smegmatis mc^2155; 7H9-ADC-0.05% Tween 80): 12.5 µg/mL (≈ 48.8 µM) |
| C[C@@H]1[C@H]2C[C@@H](C[C@H]1NC(=O)c1cc3ccccc3[nH]1)C2(C)C [Compound 16, N-((1R,2R,3R,5S)-2,6,6-trimethylbicyclo[3.1.1]heptan-3-yl)-1H-indole-2-carboxamide] | 0.12 (≈ 0.405 µM) | 0.5 (≈ 1.69 µM) | 0.06 (≈ 0.202 µM) | 0.06 (≈ 0.202 µM) | 0.12 (≈ 0.405 µM) | < 0.06 | 0.05 (≈ 0.169 µM) | 0.78 (≈ 2.63 µM) | 8 (≈ 27 µM) | 8 (≈ 27 µM) | 0.5 to 1 (≈ 1.69 to 3.37 µM) | Selectivity Index (TD50/MIC) M. abscessus DCI #21 (M. abscessus DCI #21; TD50 in THP-1 cells): 22.6; Selectivity Index (TD50/MIC) M. Massiliense CRM0019 (M. massiliense CRM 0019; TD50 in THP-1 cells): 188; Selectivity Index (TD50/MIC) M. bolletii (M. bolletii ATCC 14472; TD50 in THP-1 cells): 92; Selectivity index (TD50/MIC) (M. chelonae ATCC 35752; TD50 in THP-1 cells): >188; Selectivity Index (TD50/MIC) M. tb H37Rv ([2]; TD50 in THP-1 cells): 226; MIC P. aeruginosa PAO-1 (P. aeruginosa PAO-1): inactive; MIC (P. aeruginosa PAO-1; Pseudomonas aeruginosa, PAO1, read-out: MIC P. aeruginosa PAO-1): > 160 µg/mL; MIC (S. aureus ATCC25923): 40 µg/mL (≈ 135 µM); MBC (mycobacteria): 0.06 µg/mL (≈ 0.202 µM); TD50 (THP-1 cells): 11.3 µg/mL; MIC (M. abscessus 103; read-out: MIC M. abscessus 103, 7H9 Broth): > 64 µg/mL; MIC (M. abscessus 103; read-out: MIC M. abscessus 103, MH Broth): 16 µg/mL (≈ 54 µM); MIC (M. abscessus 1513; read-out: MIC M. abscessus 1513, 7H9 Broth): > 64 µg/mL; MIC (M. abscessus 1513; read-out: MIC M. abscessus 1513, MH Broth): > 64 µg/mL; TMM build-up and mycolic acid transfer onto arabinogalactan and TDM [3]: concentration-dependent build-up of TMM |
| CCCCCCCNC(=O)c1cc2c(C)cc(C)cc2[nH]1 [Compound 32, N-heptyl-4,6-dimethyl-1H-indole-2-carboxamide] | > 32 | > 32 | > 32 | > 32 | 32 (≈ 112 µM) | > 32 | > 5 | 5 (≈ 17.5 µM) | > 32 | > 32 | > 32 | – |
| O=C(NCC12CC3CC(CC(C3)C1)C2)c1cc2ccccc2[nH]1 [Compound 8, N-(1-(1-adamantyl)methyl)-1H-indole-2-carboxamide] | 2 (≈ 6.48 µM) | 2 (≈ 6.48 µM) | 2 (≈ 6.48 µM) | > 32 | 2 (≈ 6.48 µM) | 1 (≈ 3.24 µM) | > 5 | > 20 | > 32 | > 32 | 4 (≈ 13 µM) | – |
| CC(NC(=O)c1cc2ccccc2[nH]1)C12CC3CC(CC(C3)C1)C2 (stereo not drawn) [Compound 7, N-(1-(1-adamantyl)ethyl)-1H-indole-2-carboxamide] | 16 (≈ 49.6 µM) | 16 (≈ 49.6 µM) | 8 (≈ 24.8 µM) | 8 (≈ 24.8 µM) | 16 (≈ 49.6 µM) | 2 (≈ 6.2 µM) | > 5 | > 20 | > 32 | 32 (≈ 99.2 µM) | 8 (≈ 24.8 µM) | – |
